According to US11078216B2, “Bisaryl amides as NRF2 activators” (GLAXOSMITHKLINE INTELLECTUAL PROPERTY DEVELOPMENT LIMITED, priority 2016, dated 2021):

Tested on: NRF2 (NQO1 activity as marker for NRF2 activation), BEAS-2B cells
Assay: BEAS-2B NQO1 MTT Assay
Type: cell-based
Conditions: Homo sapiens, EC50 of NQO1 specific activity induction, 48 hours incubation, read-out: EC50
In short: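 BEAS-2B cells were exposed to compound for 48 h at 37° C, 5% CO2, then lysed. NQO1 activity was measured kinetically by MTT reduction at 570 nm over 30 minutes; EC50 came from 3-parameter fit of Delta OD/min versus log concentration.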

SMILES | EC50 [nM]
CC[C@@H]1CN(Cc2cc([C@@H](c3ccc4c(nnn4CC)c3C)C(C)(C)NC(C)=O)ccc2C)S(=O)(=O)c2ccccc2O1 [Example 132, N—((S)-1-(3-(((R)-4-Ethyl-1,1-dioxido-3,4-dihydro-2H-benzo[b][1,4,5]oxathiazepin-2-yl)methyl)-4-methylphenyl)-1-(1-ethyl-4-methyl-1H-benzo[d][1,2,3]triazol-5-yl)-2-methylpropan-2-yl)acetamide] | 10 to 100
CC[C@@H]1CN(Cc2cc([C@@H](c3ccc4c(nnn4CC)c3C)C(C)(C)NC(=O)CCCNC(C)=O)ccc2C)S(=O)(=O)c2ccccc2O1 [Example 133, 4-Acetamido-N-((S)-1-(3-(((R)-4-ethyl-1,1-dioxido-3,4-dihydro-2H-benzo[b][1,4,5]oxathiazepin-2-yl)methyl)-4-methylphenyl)-1-(1-ethyl-4-methyl-1H-benzo[d][1,2,3]triazol-5-yl)-2-methylpropan-2-yl)butanamide] | 1000 to 10000
CC[C@@H]1CN(Cc2cc([C@@H](c3ccc4c(nnn4CC)c3C)C(C)(C)NC(=O)C3CCOC3)ccc2C)S(=O)(=O)c2ccccc2O1 (stereo partly drawn) [Example 134, N-((S)-1-(3-(((R)-4-Ethyl-1,1-dioxido-3,4-dihydro-2H-benzo[b][1,4,5]oxathiazepin-2-yl)methyl)-4-methylphenyl)-1-(1-ethyl-4-methyl-1H-benzo[d][1,2,3]triazol-5-yl)-2-methylpropan-2-yl)tetrahydrofuran-3-carboxamide] | 10 to 100
CC[C@@H]1CN(Cc2cc([C@@H](c3ccc4c(nnn4CC)c3C)C(C)(C)NC(=O)C3CCCOC3)ccc2C)S(=O)(=O)c2ccccc2O1 (stereo partly drawn) [Example 135, N-((S)-1-(3-(((R)-4-Ethyl-1,1-dioxido-3,4-dihydro-2H-benzo[b][1,4,5]oxathiazepin-2-yl)methyl)-4-methylphenyl)-1-(1-ethyl-4-methyl-1H-benzo[d][1,2,3]triazol-5-yl)-2-methylpropan-2-yl)tetrahydro-2H-pyran-3-carboxamide] | 10 to 100
CC[C@@H]1CN(Cc2cc([C@@H](c3ccc4c(nnn4CC)c3C)C(C)(C)NC(=O)c3ccco3)ccc2C)S(=O)(=O)c2ccccc2O1 [Example 136, N-((S)-1-(3-(((R)-4-Ethyl-1,1-dioxido-3,4-dihydro-2H-benzo[b][1,4,5]oxathiazepin-2-yl)methyl)-4-methylphenyl)-1-(1-ethyl-4-methyl-1H-benzo[d][1,2,3]triazol-5-yl)-2-methylpropan-2-yl)furan-2-carboxamide] | 100 to 1000
CC[C@@H]1CN(Cc2cc([C@@H](c3ccc4c(nnn4CC)c3C)C(C)(C)NC(=O)c3ccoc3)ccc2C)S(=O)(=O)c2ccccc2O1 [Example 137, N-((S)-1-(3-(((R)-4-Ethyl-1,1-dioxido-3,4-dihydro-2H-benzo[b][1,4,5]oxathiazepin-2-yl)methyl)-4-methylphenyl)-1-(1-ethyl-4-methyl-1H-benzo[d][1,2,3]triazol-5-yl)-2-methylpropan-2-yl)furan-3-carboxamide] | 10 to 100
CC[C@@H]1CN(Cc2cc([C@@H](c3ccc4c(nnn4CC)c3C)C(C)(C)NC(=O)c3ccns3)ccc2C)S(=O)(=O)c2ccccc2O1 [Example 138, N-((S)-1-(3-(((R)-4-Ethyl-1,1-dioxido-3,4-dihydro-2H-benzo[b][1,4,5]oxathiazepin-2-yl)methyl)-4-methylphenyl)-1-(1-ethyl-4-methyl-1H-benzo[d][1,2,3]triazol-5-yl)-2-methylpropan-2-yl)isothiazole-5-carboxamide] | 10 to 100
CC[C@@H]1CN(Cc2cc([C@@H](c3ccc4c(nnn4CC)c3C)C(C)(C)NC(=O)c3ccc(=O)n(C)c3)ccc2C)S(=O)(=O)c2ccccc2O1 [Example 139, N-((S)-1-(3-(((R)-4-Ethyl-1,1-dioxido-3,4-dihydro-2H-benzo[b][1,4,5]oxathiazepin-2-yl)methyl)-4-methylphenyl)-1-(1-ethyl-4-methyl-1H-benzo[d][1,2,3]triazol-5-yl)-2-methylpropan-2-yl)-1-methyl-6-oxo-1,6-dihydropyridine-3-carboxamide] | 10 to 100
CC[C@@H]1CN(Cc2cc([C@@H](c3ccc4c(nnn4CC)c3C)C(C)(C)NC(=O)c3cccn(C)c3=O)ccc2C)S(=O)(=O)c2ccccc2O1 [Example 140, N-((S)-1-(3-(((R)-4-Ethyl-1,1-dioxido-3,4-dihydro-2H-benzo[b][1,4,5]oxathiazepin-2-yl)methyl)-4-methylphenyl)-1-(1-ethyl-4-methyl-1H-benzo[d][1,2,3]triazol-5-yl)-2-methylpropan-2-yl)-1-methyl-2-oxo-1,2-dihydropyridine-3-carboxamide] | 10 to 100
CC[C@@H]1CN(Cc2cc([C@@H](c3ccc4c(nnn4CC)c3C)C(C)(C)NC(=O)c3ccn(C)c(=O)c3)ccc2C)S(=O)(=O)c2ccccc2O1 [Example 141, N-((S)-1-(3-(((R)-4-Ethyl-1,1-dioxido-3,4-dihydro-2H-benzo[b][1,4,5]oxathiazepin-2-yl)methyl)-4-methylphenyl)-1-(1-ethyl-4-methyl-1H-benzo[d][1,2,3]triazol-5-yl)-2-methylpropan-2-yl)-1-methyl-2-oxo-1,2-dihydropyridine-4-carboxamide] | 10 to 100
CC[C@@H]1CN(Cc2cc([C@@H](c3ccc4c(nnn4CC)c3C)C(C)(C)NC(=O)CC(=O)O)ccc2C)S(=O)(=O)c2ccccc2O1 [Example 142, 3-(((S)-1-(3-(((R)-4-Ethyl-1,1-dioxido-3,4-dihydro-2H-benzo[b][1,4,5]oxathiazepin-2-yl)methyl)-4-methylphenyl)-1-(1-ethyl-4-methyl-1H-benzo[d][1,2,3]triazol-5-yl)-2-methylpropan-2-yl)amino)-3-oxopropanoic acid] | 10 to 100
CC[C@@H]1CN(Cc2cc([C@@H](c3ccc4c(nnn4CC)c3C)C(C)(C)NC(=O)CS(C)(=O)=O)ccc2C)S(=O)(=O)c2ccccc2O1 [Example 143, N-((S)-1-(3-(((R)-4-Ethyl-1,1-dioxido-3,4-dihydro-2H-benzo[b][1,4,5]oxathiazepin-2-yl)methyl)-4-methylphenyl)-1-(1-ethyl-4-methyl-1H-benzo[d][1,2,3]triazol-5-yl)-2-methylpropan-2-yl)-2-(methylsulfonyl)acetamide] | 10 to 100
CC[C@@H]1CN(Cc2cc([C@@H](c3ccc4c(nnn4CC)c3C)C(C)(C)NC(=O)CC#N)ccc2C)S(=O)(=O)c2ccccc2O1 [Example 144, 2-Cyano-N-((S)-1-(3-(((R)-4-ethyl-1,1-dioxido-3,4-dihydro-2H-benzo[b][1,4,5]oxathiazepin-2-yl)methyl)-4-methylphenyl)-1-(1-ethyl-4-methyl-1H-benzo[d][1,2,3]triazol-5-yl)-2-methylpropan-2-yl)acetamide] | 10 to 100
CC[C@@H]1CN(Cc2cc([C@@H](c3ccc4c(nnn4CC)c3C)C(C)(C)NC(=O)c3cnc(OC)nc3)ccc2C)S(=O)(=O)c2ccccc2O1 [Example 145, N-((S)-1-(3-(((R)-4-Ethyl-1,1-dioxido-3,4-dihydro-2H-benzo[b][1,4,5]oxathiazepin-2-yl)methyl)-4-methylphenyl)-1-(1-ethyl-4-methyl-1H-benzo[d][1,2,3]triazol-5-yl)-2-methylpropan-2-yl)-2-methoxypyrimidine-5-carboxamide] | 1 to 10
